Results on 36 compounds are retold here after patent publication US20040266823A1 (priority 2001, published 2004).

pIC50: −log10 of the molar value. Structures can show the parent of a compound that is named as a salt.

Sequence of recombinant human CCR5 receptor (P51681 whole entry): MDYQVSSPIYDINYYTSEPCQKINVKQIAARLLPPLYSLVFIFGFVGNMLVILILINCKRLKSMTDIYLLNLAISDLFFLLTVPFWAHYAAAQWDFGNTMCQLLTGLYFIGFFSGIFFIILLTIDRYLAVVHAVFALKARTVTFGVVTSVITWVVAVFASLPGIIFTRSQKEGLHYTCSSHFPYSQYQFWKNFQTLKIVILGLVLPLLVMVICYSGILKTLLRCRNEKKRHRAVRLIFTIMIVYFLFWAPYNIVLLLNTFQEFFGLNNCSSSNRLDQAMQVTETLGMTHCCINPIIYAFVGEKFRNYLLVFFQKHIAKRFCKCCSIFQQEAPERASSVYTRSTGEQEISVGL

This experiment concerns the target recombinant human CCR5 receptor (Homo sapiens, UniProt P51681). Put plainly: MIP-1α radioligand binding assay (scintillation proximity). The note with it: displacement of 0.1 nM iodinated MIP-1α; membranes from Chinese hamster ovary cells; average if tested more than once. The method, then: The ability of compounds to inhibit the binding of MIP-1α was assessed by an in vitro radioligand binding assay. Membranes were prepared from Chinese hamster ovary cells which expressed the recombinant human CCR5 receptor. These membranes were incubated with 0.1 nM iodinated MIP-1α, scintillation proximity beads and various concentrations of the compounds of the invention in 96 well plates. The amount of iodinated MIP-1α bound to the receptor was determined by scintillation counting. Competition curves were obtained for compounds and the concentration of compound which displaced 50% of bound iodinated MIP-1α was calculated (IC50).
In Table II the results are presented as Pic50 values. A Pic50 value is the negative log (to base 10) of the IC50 result, so an IC50 of 1 μM (that is 1×10^−6M) gives a Pic50 of 6. If a compounds was tested more than once then the data below is an average of the probative tests results.
Background: In a scintillation proximity assay essentially only radioactivity close to the scintillant gives light.
Take `CCN(C(=O)Cc1ccc(S(C)(=O)=O)cc1)C1CCN(CC[C@H](NC(=O)c2cnccc2C(F)(F)F)c2ccccc2)CC1.Cl`: the Pic50 came out at 7.32.
`CCN(C(=O)Cc1ccc(S(C)(=O)=O)cc1)C1CCN(CC[C@H](NC(=O)C2CCOC(C)(C)C2)c2ccccc2)CC1` (stereo partly drawn) [Compound No. 81, (s)-N-[1-(3-phenyl-3-[2,2-dimethyltetrahydropyran-4-yl-carboxyamino]propyl)-4-piperidinyl]-N-ethyl-4-methanesulfonylphenylacetamide]: the Pic50 is reported as 7.7.
Still for that read-out and setting: next, `CCN(C(=O)Cc1ccc(S(C)(=O)=O)cc1)C1CCN(CC[C@H](NC(=O)N2CCSCC2)c2ccccc2)CC1` [Compound No. 83, (S)-N-[1-(3-phenyl-3-[thiomorpholin-4-ylcarboxyamino]propyl)-4-piperidinyl]-N-ethyl-4-methanesulfonylphenylacetamide]: 7.97.
Take `CCN(C(=O)Cc1ccc(S(C)(=O)=O)cc1)C1CCN(CC[C@H](NC(=O)C(F)F)c2ccccc2)CC1` [Compound No. 84, (S)-N-[1-(3-phenyl-3-difluoroacetylaminopropyl)-4-piperidinyl]-N-ethyl-4-methanesulfonylphenylacetamide hydrochloride]: the pIC50 is 7.45.
On the same count and under the same terms, next, `CCN(C(=O)Cc1ccc(S(C)(=O)=O)cc1)C1CCN(CC[C@H](NC(=O)CC(F)(F)F)c2ccccc2)CC1` [Compound No. 86, (S)-N-[1-(3-phenyl-3-[3,3,3-trifluoropropionylamino]propyl)-4-piperidinyl]-N-ethyl-4-methanesulfonylphenylacetamide hydrochloride]: 8.70.
Regarding `CCN(C(=O)Cc1ccc(S(C)(=O)=O)cc1)C1CCN(CC[C@H](NC(=O)N2CCS(=O)(=O)CC2)c2ccccc2)CC1` [Compound No. 91, (S)-N-[1-(3-phenyl-3-[1,1-dioxothiomorpholin-4-ylcarboxyamino]propyl)-4-piperidinyl]-N-ethyl-4-methanesulfonylphenylacetamide], the Pic50 is given as 7.52.
For `CCN(C(=O)Cc1ccc(S(C)(=O)=O)cc1)C1CCN(CC[C@H](NC(=O)c2cccc(C#N)c2)c2ccccc2)CC1` [Compound No. 93, (S)-N-[1-(3-phenyl-3-[3-cyanobenzoylamino]propyl)-4-piperidinyl]-N-ethyl-4-methanesulfonylphenylacetamide], the pIC50 was 7.79.
Consider `CCN(C(=O)Cc1ccc(S(C)(=O)=O)cc1)C1CCN(C(C)C[C@H](NC(=O)C2CCOCC2)c2ccccc2)CC1` (stereo partly drawn) [Compound No. 95, (3′S)-N-[1-(1-methyl-3-phenyl-3-[tetrahydropyran-4-yl-carboxyamino]propyl)-4-piperidinyl]-N-ethyl-4-methanesulfonylphenylacetamide], for which the pIC50 was 9.72.
On the same count and under the same terms, next, `CCN(C(=O)Cc1ccc(S(C)(=O)=O)cc1)C1CCN(CC[C@H](NC(=O)CCC(F)(F)F)c2ccccc2)CC1` [Compound No. 96, (S)-N-[1-(3-phenyl-3-[4,4,4-trifluorobutyrylamino]propyl)-4-piperidinyl]-N-ethyl-4-methanesulfonylphenylacetamide hydrochloride]: 8.63; `CCN(C(=O)Cc1ccc(S(C)(=O)=O)cc1)C1CCN(CC[C@H](NC(=O)c2ccccc2)c2cccc(F)c2)CC1` [Compound No. 103, (S)-N-{1-[3-benzoylamino-3-(3-fluorophenyl)propyl]piperidin-4-yl}-N-ethyl-2-(4-methanesulfonyl-phenyl)acetamide]: 9.36; `CCN(C(=O)Cc1ccc(S(C)(=O)=O)cc1)C1CCN(CC[C@H](NC(=O)c2cccc(F)c2)c2cccc(F)c2)CC1` [Compound No. 104, (S)-N-{1-[3-(3-fluorobenzoylamino)-3-(3-fluorophenyl)propyl]piperidin-4-yl}-N-ethyl-2-(4-methanesulfonyl-phenyl)acetamide]: 9.35.
For the compound `CCN(C(=O)Cc1ccc(S(C)(=O)=O)cc1)C1CCN(CC[C@H](NC(=O)CC(C)(C)C)c2cccc(F)c2)CC1` [Compound No. 106, (S)-N-{1-[3-(3,3-dimethylbutyrylamino)-3-(3-fluorophenyl)propyl]piperidin-4-yl}-N-ethyl-2-(4-methanesulfonyl-phenyl)acetamide], the pIC50 was 9.25.
Turning to `CCN(C(=O)Cc1ccc(S(C)(=O)=O)cc1)C1CCN(CC[C@H](NC(=O)CC(F)(F)F)c2cccc(F)c2)CC1` [Compound No. 108, (S)-N-{1-[3-(3,3,3-trifluoropropionylamino)-3-(3-fluorophenyl)propyl]piperidinyl}-N-ethyl-2-(4-methanesulfonyl-phenyl)acetamide], the Pic50 is 8.02.
For `CCN(C(=O)Cc1ccc(S(C)(=O)=O)cc1)C1CCN(CC[C@H](NC(=O)C2CCSCC2)c2ccccc2)CC1` [Compound No. 109, (S)-N-[1-(3-phenyl-3-[tetrahydrothiopyran-4-yl-carboxyamino]propyl)-4-piperidinyl]-N-ethyl-4-methanesulfonylphenylacetamide], the Pic50 turned out to be 9.27.
For `CCN(C(=O)Cc1ccc(S(C)(=O)=O)cc1)C1CCN(CC[C@H](NC(=O)c2ccoc2)c2ccccc2)CC1` [compound 52], the pIC50 is 7.85.
Turning to `CCN(C(=O)Cc1ccc(S(C)(=O)=O)cc1)C1CCN(CC[C@H](NC(=O)c2ccc[nH]2)c2ccccc2)CC1` [compound 53], the negative-log IC50 (pIC50) is 7.81.
Same read-out and setting: next, `CCN(C(=O)Cc1ccc(S(C)(=O)=O)cc1)C1CCN(CC[C@H](NC(=O)c2csnn2)c2ccccc2)CC1` [compound 63]: 7.04; `CCN(C(=O)Cc1ccc(S(C)(=O)=O)cc1)C1CCN(CC[C@H](NC(=O)c2ccno2)c2ccccc2)CC1` [compound 64]: 6.48.
On the same count and under the same terms, next, `CCN(C(=O)Cc1ccc(S(C)(=O)=O)cc1)C1CCN(CC[C@H](NC(=O)c2ccc(NC(C)=O)nc2)c2ccccc2)CC1` [compound 68]: 7.18; `CCN(C(=O)Cc1ccc(S(C)(=O)=O)cc1)C1CCN(CC[C@H](NC(=O)c2ccc(S(C)(=O)=O)s2)c2ccccc2)CC1` [compound 79]: 7.55; `CCN(C(=O)Cc1ccc(S(C)(=O)=O)cc1)C1CCN(CC[C@H](NC(=O)c2cc(F)cc(F)c2)c2ccccc2)CC1` [compound 82]: 7.70.
In the case of `CCN(C(=O)Cc1ccc(S(C)(=O)=O)cc1)C1CCN(CC[C@H](NC(=O)C(C)CC(F)(F)F)c2ccccc2)CC1` (stereo partly drawn) [compound 87], the negative-log IC50 (pIC50) is 7.79.
Consider `CCN(C(=O)Cc1ccc(S(C)(=O)=O)cc1)C1CCN(CC[C@H](NC(=O)c2ccc(C(F)(F)F)o2)c2ccccc2)CC1` [compound 88], for which the pIC50 was 7.48.
Turning to `CCN(C(=O)Cc1ccc(S(C)(=O)=O)cc1)C1CCN(CC[C@H](NC(=O)c2ccc(=O)[nH]c2)c2ccccc2)CC1` [compound 89], the pIC50 was 7.24.
As for `CCN(C(=O)Cc1ccc(S(C)(=O)=O)cc1)C1CCN(CC[C@H](NC(=O)c2cnc[nH]2)c2ccccc2)CC1` [compound 90], the negative-log IC50 (pIC50) is 6.61.
Turning to `CCN(C(=O)Cc1ccc(S(C)(=O)=O)cc1)C1CCN(CC[C@H](NC(=O)c2[nH]nnc2C(C)C)c2ccccc2)CC1` [compound 92], the pIC50 is 6.20.
The same measure, in the same setting: next, `CCN(C(=O)Cc1ccc(S(C)(=O)=O)cc1)C1CCN(CC[C@H](NC(=O)c2ccc(C#N)cc2)c2ccccc2)CC1` [compound 94]: 7.56.
On the same count and under the same terms, the result for `CCN(C(=O)Cc1ccc(S(C)(=O)=O)cc1)C1CCN(CC[C@H](NC(=O)c2ccc(NC(C)=O)cc2)c2ccccc2)CC1` [compound 97] reads 7.57; that for `CCN(C(=O)Cc1ccc(S(C)(=O)=O)cc1)C1CCN(CC[C@H](NC(=O)c2cccc(S(C)(=O)=O)c2)c2ccccc2)CC1` [compound 98], 7.84.
For the compound `CCN(C(=O)Cc1ccc(S(C)(=O)=O)cc1)C1CCN(CC[C@H](NC(=O)c2ccc(S(C)(=O)=O)cc2)c2ccccc2)CC1` [compound 99], the pIC50 was 7.39.
For the compound `CCN(C(=O)Cc1ccc(S(C)(=O)=O)cc1)C1CCN(CC[C@H](NC(=O)c2ccc(S(=O)(=O)NC)cc2)c2ccccc2)CC1` [compound 100], the pIC50 was 7.63.
For `CCN(C(=O)Cc1ccc(S(C)(=O)=O)cc1)C1CCN(CC[C@H](NC(=O)c2ccc(NS(C)(=O)=O)cc2)c2ccccc2)CC1` [compound 101], the pIC50 was 8.33.
As for `CCN(C(=O)Cc1ccc(S(C)(=O)=O)cc1)C1CCN(CC[C@H](NC(=O)c2ccc(C(F)(F)F)cc2)c2ccccc2)CC1` [compound 102], the pIC50 was 8.02.
The same measure, in the same setting: next, `CCN(C(=O)Cc1ccc(S(C)(=O)=O)cc1)C1CCN(CC[C@H](NC(=O)C2CCOCC2)c2cccc(F)c2)CC1` [compound 105]: 8.54; `CCN(C(=O)Cc1ccc(S(C)(=O)=O)cc1)C1CCN(CC[C@H](NC(=O)N2CCCCC2)c2cccc(F)c2)CC1` [compound 107]: 9.03.
For `CCN(C(=O)Cc1ccc(S(C)(=O)=O)cc1)C1CCN(CC[C@H](NC(=O)CC(C)(C)O)c2ccccc2)CC1` [compound 110], the pIC50 was 7.34.

As usually defined, the pIC50 is the IC50 on a negative log10 scale, so that one unit is a factor of ten.
